Assay results as given in article PMC11739737 (Clinical Pharmacology and Therapeutics, 2024).
Read-outs that look alike come from different tables or passages of the source. Marks after values point to notes of the source that are not given here.

Legend:
OCT2 and MATE1/2‐K [1] = settings: for fe of metformin (fraction recovered in the urine): geometric mean (geometric %CV)
OCT2 and MATE1/2-K [2] = assay: clinical; settings: male, human, in vivo; for AUC(0-t): AUC0–24hour, geometric mean; for Cmax: C max of metformin; for Cmax / CL renal: geometric mean (geometric %CV); for CL renal: CLr of metformin (0–24 hour)
recombinant NNMT protein = biological target: T1, recombinant NNMT protein (Homo sapiens, UniProt P40261); assay: NNMT activity assay; assay type: biochemical; settings: nicotinamide 100 μM, 37°C, 6 min
T1 sequence (P40261 1-264): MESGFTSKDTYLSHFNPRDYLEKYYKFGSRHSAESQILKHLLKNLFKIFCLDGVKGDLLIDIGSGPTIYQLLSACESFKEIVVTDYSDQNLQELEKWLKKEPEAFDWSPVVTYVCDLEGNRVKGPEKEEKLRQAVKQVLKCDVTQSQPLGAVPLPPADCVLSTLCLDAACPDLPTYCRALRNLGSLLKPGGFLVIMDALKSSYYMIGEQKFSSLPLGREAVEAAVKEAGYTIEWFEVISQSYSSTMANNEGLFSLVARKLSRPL

[3] = assay type: in vivo, human; settings: for Cmax: geometric mean (geometric %CV); for half-life: half‐life after T max
OCT2 and MATE1/2-K [4] = assay: clinical; settings: male, human, in vivo, geometric mean; for AUC(0-t): AUC0–8hour; for CL renal: CLr (0–8 h)
OCT2 and MATE1/2‐K [5] = settings: at fifth dose of dolutegravir
OAT1/3 = assay type: in vivo, human
MATE1 = biological target: T2, MATE1 (Homo sapiens, UniProt Q96FL8); assay: Inhibition of MATE1-mediated metformin uptake in MATE1-HEK293 cells; assay type: in vitro ADME; settings: K i for MATE1, metformin (10 μM) uptake, 37°C, MATE1-HEK; average of experiments
T2 sequence (Q96FL8 1-570): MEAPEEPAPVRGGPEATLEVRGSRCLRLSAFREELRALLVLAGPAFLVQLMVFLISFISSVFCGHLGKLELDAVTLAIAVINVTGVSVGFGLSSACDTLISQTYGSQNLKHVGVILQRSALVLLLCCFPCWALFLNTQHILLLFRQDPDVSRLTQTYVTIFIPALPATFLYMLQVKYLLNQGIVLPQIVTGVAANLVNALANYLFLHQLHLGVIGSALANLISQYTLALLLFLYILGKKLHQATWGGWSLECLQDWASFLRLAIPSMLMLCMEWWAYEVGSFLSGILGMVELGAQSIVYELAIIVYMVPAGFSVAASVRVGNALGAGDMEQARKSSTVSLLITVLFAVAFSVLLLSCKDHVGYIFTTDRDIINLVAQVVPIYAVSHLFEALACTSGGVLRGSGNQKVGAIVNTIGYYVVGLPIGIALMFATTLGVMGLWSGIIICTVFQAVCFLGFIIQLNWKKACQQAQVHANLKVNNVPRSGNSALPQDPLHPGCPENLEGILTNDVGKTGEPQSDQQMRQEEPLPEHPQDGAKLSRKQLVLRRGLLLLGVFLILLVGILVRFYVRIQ

MATE2‐K = MATE2‐K (Homo sapiens, UniProt Q86VL8); assay: Inhibition of MATE2‐K-mediated metformin uptake in MATE2‐K-HEK293 cells; assay type: in vitro ADME
[6] = cited from earlier work
OCT2 = biological target: T3, OCT2 (Homo sapiens, UniProt O15244); assay: Inhibition of OCT2-mediated metformin uptake in OCT2-HEK293 cells; assay type: in vitro ADME; settings: HEK293 cells stably expressing OCT2, pH 7.4, probe metformin (10 μM)
T3 sequence (O15244 1-555): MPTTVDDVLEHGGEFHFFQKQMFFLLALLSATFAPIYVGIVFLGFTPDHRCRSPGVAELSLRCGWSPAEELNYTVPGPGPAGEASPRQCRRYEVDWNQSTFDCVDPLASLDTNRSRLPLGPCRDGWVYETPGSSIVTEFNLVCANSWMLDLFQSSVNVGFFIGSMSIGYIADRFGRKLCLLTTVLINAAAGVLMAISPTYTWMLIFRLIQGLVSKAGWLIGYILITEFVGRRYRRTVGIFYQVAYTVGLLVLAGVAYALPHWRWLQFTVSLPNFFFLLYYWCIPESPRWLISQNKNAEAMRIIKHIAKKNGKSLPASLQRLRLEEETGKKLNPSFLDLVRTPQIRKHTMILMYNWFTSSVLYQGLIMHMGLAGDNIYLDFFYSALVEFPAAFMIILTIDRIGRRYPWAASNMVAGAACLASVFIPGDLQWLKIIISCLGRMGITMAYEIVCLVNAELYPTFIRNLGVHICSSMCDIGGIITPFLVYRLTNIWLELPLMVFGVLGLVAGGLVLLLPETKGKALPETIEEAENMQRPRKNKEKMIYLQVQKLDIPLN

[7] = 50 mg, with dolutegravir 50 mg BID, fifth dose
[8] = 50 mg, with dolutegravir 50 mg BID, first dose
[9] = dolutegravir (fifth) + metformin
[10] = dolutegravir (first) + metformin
[11] = male, human, plasma, oral, 50 mg

Sequence of MATE2‐K (Q86VL8 1-566 isoform Q86VL8-3): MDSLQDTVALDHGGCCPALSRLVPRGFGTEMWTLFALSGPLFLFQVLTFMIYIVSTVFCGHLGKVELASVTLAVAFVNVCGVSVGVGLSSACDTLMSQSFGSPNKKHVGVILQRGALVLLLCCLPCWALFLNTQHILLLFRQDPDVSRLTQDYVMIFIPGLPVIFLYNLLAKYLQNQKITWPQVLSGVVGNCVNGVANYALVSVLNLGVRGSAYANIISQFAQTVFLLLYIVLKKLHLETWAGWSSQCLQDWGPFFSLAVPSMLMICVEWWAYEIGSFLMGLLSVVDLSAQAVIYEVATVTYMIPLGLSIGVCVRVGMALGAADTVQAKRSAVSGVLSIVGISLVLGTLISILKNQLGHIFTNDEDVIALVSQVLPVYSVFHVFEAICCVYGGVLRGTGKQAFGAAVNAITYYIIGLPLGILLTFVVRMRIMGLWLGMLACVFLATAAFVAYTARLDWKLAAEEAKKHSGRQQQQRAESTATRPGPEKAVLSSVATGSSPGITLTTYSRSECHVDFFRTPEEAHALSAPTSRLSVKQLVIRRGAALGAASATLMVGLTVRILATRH

CN(C)C(=N)N=C(N)N [Metformin]
decrease of CLr of metformin (OCT2 and MATE1/2‐K [1]; cimetidine 400 mg): 15.5%
increase of AUC of metformin (OCT2 and MATE1/2‐K [1]; cimetidine 400 mg): 1.7 times
decrease of CLr of metformin (OCT2 and MATE1/2‐K [1]; cimetidine 800 mg): 42.5%
increase of AUC of metformin (OCT2 and MATE1/2‐K [1]; cimetidine 800 mg): 2.2 times
increase of C max of metformin (OCT2 and MATE1/2‐K [1]; co‐administration of cimetidine 400 mg): 2.1 times
increase of C max of metformin (OCT2 and MATE1/2‐K [1]; co‐administration of cimetidine 800 mg): 2.7 times
decrease of CLr of metformin (OCT2 and MATE1/2‐K [1]; dolutegravir fifth dose): 56.9%
decrease of CLr of metformin (OCT2 and MATE1/2‐K [1]; dolutegravir first dose): 26.8%
increase of AUC of metformin (OCT2 and MATE1/2‐K [1]; fifth dose of dolutegravir): 3.0 times
increase of C max of metformin (OCT2 and MATE1/2‐K [1]; fifth dose of dolutegravir): 2.3 times
increase of AUC of metformin (OCT2 and MATE1/2‐K [1]; first dose of dolutegravir): 1.8 times
increase of C max of metformin (OCT2 and MATE1/2‐K [1]; first dose of dolutegravir): 1.6 times
fe of metformin (fraction recovered in the urine) (OCT2 and MATE1/2‐K [1]; metformin 500 mg alone (control)): 0.649 (13.7)
fe of metformin (fraction recovered in the urine) (OCT2 and MATE1/2‐K [1]; with cimetidine 400 mg): 0.940 (13.9)***
fe of metformin (fraction recovered in the urine) (OCT2 and MATE1/2‐K [1]; with cimetidine 800 mg): 0.826 (22.1)**
fe of metformin (fraction recovered in the urine) (OCT2 and MATE1/2‐K [1]; with dolutegravir 50 mg BID, fifth dose): 0.844 (20.7)**
fe of metformin (fraction recovered in the urine) (OCT2 and MATE1/2‐K [1]; with dolutegravir 50 mg BID, first dose): 0.828 (20.6)**
AUC(0-t) (OCT2 and MATE1/2-K [2]; [7]): 213 µM·h
AUC(0-t) (OCT2 and MATE1/2-K [2]; [8]): 123 µM·h
Cmax (OCT2 and MATE1/2-K [2]; [7]): 23.8 µM
Cmax (OCT2 and MATE1/2-K [2]; [8]): 17 µM
CL renal (OCT2 and MATE1/2-K [2]; [7]): 199 mL/min
CL renal (OCT2 and MATE1/2-K [2]; [8]): 339 mL/min
AUC(0-t) (OCT2 and MATE1/2-K [2]; 800 mg, with cimetidine 800 mg): 154 µM·h
Cmax (OCT2 and MATE1/2-K [2]; 800 mg, with cimetidine 800 mg): 28 µM
CL renal (OCT2 and MATE1/2-K [2]; 800 mg, with cimetidine 800 mg): 269 mL/min

CN/C(=N/CCSCc1nc[nH]c1C)NC#N [Cimetidine]
inhibition of the activity of NNMT (recombinant NNMT protein; cimetidine 20 μM): eliminated the possibility
Cmax ([3]; male, human, plasma, oral, 800 mg, maximum plasma concentration (C max), cimetidine 800 mg): 25.7 µM
adverse event ([3]; one subject, cimetidine 800 mg (Period 2), judged to have no causal relationship with the study drug): Vomiting

CN1CC(=O)NC1=N [Creatinine, creatinine]
AUC(0-t) (OCT2 and MATE1/2-K [4]; baseline): 641 µM·h
AUC(0-t) (OCT2 and MATE1/2-K [4]; cimetidine 400 mg + metformin): 669 µM·h
AUC(0-t) (OCT2 and MATE1/2-K [4]; cimetidine 800 mg + metformin): 689 µM·h
AUC(0-t) (OCT2 and MATE1/2-K [4]; control (metformin alone)): 600 µM·h
AUC(0-t) (OCT2 and MATE1/2-K [4]; [9]): 691 µM·h
AUC(0-t) (OCT2 and MATE1/2-K [4]; [10]): 712 µM·h

Cn1cnc2c(ncn2[C@@H]2O[C@H](CO)[C@@H](O)[C@H]2O)c1=N [m^1A, N1‐methyladenosine]
clearance for tubular secretion remaining (CLr minus creatinine CLr) (OCT2 and MATE1/2‐K [5]): 29%
AUC(0-t) (OCT2 and MATE1/2-K [4]; baseline): 0.822 µM·h
AUC(0-t) (OCT2 and MATE1/2-K [4]; cimetidine 400 mg + metformin): 0.918 µM·h
AUC(0-t) (OCT2 and MATE1/2-K [4]; cimetidine 800 mg + metformin): 0.984 µM·h
AUC(0-t) (OCT2 and MATE1/2-K [4]; control (metformin alone)): 0.791 µM·h
AUC(0-t) (OCT2 and MATE1/2-K [4]; [9]): 1.12 µM·h
AUC(0-t) (OCT2 and MATE1/2-K [4]; [10]): 0.977 µM·h
CL renal (OCT2 and MATE1/2-K [4]; baseline): 188 mL/min
CL renal (OCT2 and MATE1/2-K [4]; cimetidine 400 mg + metformin): 198 mL/min
CL renal (OCT2 and MATE1/2-K [4]; cimetidine 800 mg + metformin): 159 mL/min
CL renal (OCT2 and MATE1/2-K [4]; control (metformin alone)): 198 mL/min

Cc1ncc(CO)c(C(=O)O)c1O [pyridoxic acid]
magnitude of inhibition of CLr (OAT1/3; at fifth dose of dolutegravir): at most 21%
change in CLr (OAT1/3; with cimetidine): no change

C[C@@H]1CCO[C@H]2Cn3cc(C(=O)NCc4ccc(F)cc4F)c(=O)c(O)c3C(=O)N12 [Dolutegravir]
inhibition of the activity of NNMT (recombinant NNMT protein; dolutegravir 30 μM): eliminated the possibility
AUC [3, 11]: 209 µM·h
AUC(0-inf) [3, 11]: 141 µM·h
Cmax ([3]; male, human, plasma, oral, 50 mg, C max up to 12 hours after metformin administration, dolutegravir 50 mg BID, fifth dose): 21.7 µM
Cmax ([3]; male, human, plasma, oral, 50 mg, C max up to 12 hours after metformin administration, dolutegravir 50 mg BID, first dose): 7.07 µM
half-life ([3]; male, human, plasma, oral, 50 mg, dolutegravir 50 mg BID, fifth dose): 16.6 ± 1.7 h
half-life ([3]; male, human, plasma, oral, 50 mg, dolutegravir 50 mg BID, first dose): 13 ± 1.1 h
Ki (MATE1): 830 nM
Ki (MATE2‐K): 2970 ± 400 nM
elimination half‐life [6]: 13 to 14 h
Ki at 2 min (OCT2): 290 ± 40 nM
